10 compounds from paper PMC5907308, “21st Brazilian Diabetes Society Congress” (Diabetology & Metabolic Syndrome, 2018) can be followed below.

Like-named read-outs stand apart in the source and are kept apart here.

One data set relates to Gram-positive. The data set can be described thus: Antibiogram of tissue fragment cultures of infected diabetic foot ulcers, Gram-positive. Conditions: 51 cultures of tissue fragment, WHONET 5.6, Graphic 2. The format is cell-based. From the text:
DFU patients with tissue fragment culture and antibiogram were included in the study sample. Microbiota resistance profile analyzed through WHO freeware softwares BACLINK 2.0 and WHONET 5.6.

Data set [1] relates to Slc2a4/GLUT4 expression in 3T3-L1 cell line adipocytes. The data set can be described thus: Slc2a4/GLUT4 expression in adipocytes (Western blotting, RTqPCR). The note with it: 24 h; E2 10 nM; PPT 10 nM; DPN 100 nM, in the presence or absence of E2. The class given is cell-based. The procedure:
It is known that estradiol (E2) via its receptors, ER-alpha and ER-beta, regulates the gene expression through direct binding to DNA, or through interactions with transcription factors, among them SP1 (Sp1 transcription factor). […] Thus, the role of SP1 in the expression of estradiol-mediated Slc2a4/GLUT4 in 3T3-L1 cell line adipocytes was evaluated in an attempt to understand the role of each estradiol receptors in this regulation. For this, the adipocytes were treated with 10 nM estradiol plus 0.05% DMSO (used to solubilize the ER agonists) for 24 h. Cells were also cultured with selective agonists of the different ER isoforms. To evaluate the ER-alpha, the PPT was used, in the concentration of 10 nM, with or without 10 nM of E2 (10E2 + PPT); to evaluate the ER-beta, the DPN was used in the concentration of 100 nM, with or without 10 nM of E2 (10E2 + DPN); always for 24 h. In the control group (0E2), cells were treated with only 0.05% DMSO (vehicle of agonists). The analyzes were: quantification of total GLUT4 protein, nuclear SP1 and nuclear ER-alpha/beta (Western blotting); expression of the Slc2a4 and Sp1 (RTqPCR) genes; and binding activity of the ERs to the SP1 binding site on the Slc2a4 promoter (electrophoretic mobilization, EMSA). Treatment with E2 increased the expression of Slc2a4/GLUT4. […] However, it was observed that both ERalpha and ER-beta activation increased the nuclear content of the transcription factor SP1, however, only the ER-alpha effect, especially isolated, seems to involve SP1 in the observed regulation.

Data set [2] has as its system patient with type 2 diabetes mellitus. The method, then:
Case report: M.G.G.A, person, married, sought an endocrinologist in 2014 due to the diagnosis of type 2 diabetes mellitus 3 years ago, they used glimeperide 4 mg/day and metformin (MTF) 1 g/day. They were hypertensive and dyslipidemic, already under treatment, and reported difficulty in losing and maintaining weight for several years. They denied physical activity (PA) practice for 1 month (before walking 3x/week) and in a 24-hour diet reminder there was an excess of simple carbohydrate (SC) intake and saturated fat (SF). […] The patient was oriented to change their lifestyle and it was also requested exams. […] At this time, due financial limitation, they were directed to maintain medications, prescribed vitamin D3 14,000 IU/week and stimulated lifestyle change (LC).

Data set [3] deals with patient with type 2 diabetes. The note with it: in vivo. The procedure:
An overweight person (BMI 37.4 kg/m^2) with a 9-year history of type 2 diabetes had been taking metformin (1 g/day), glyburide (10 mg/day) and vildaglipitin (100 mg/day) for 7 years. They were admitted for elective bariatric surgery and stopped their medications a day before. […] It is known that there are some factors that contribute for DKA, like decreasing in-carbohydrate intake, infection or reduction of insulin therapy.

The subject of data set [4] is healthy and non-diabetic women. Conditions: after 7 days. The procedure: Methods: Twenty healthy and non-diabetic women (19–37 years old) were evaluated at baseline and 7 days after dapagliflozin (10 mg/day), maintaining their regular lifestyle. Body mass index (BMI), sagittal abdominal diameter, body composition by electrical bioimpedance and energy expenditure of resting and oxidation of energetic substrates in fasting by indirect calorimetry were analyzed. Functional magnetic resonance imaging detected the activation of brain areas against the stimulation of glucose and dapagliflozin. From the oral glucose tolerance test (TTOG), insulin sensitivity, hepatic insulin extraction and beta-cell function were assessed by mathematical modeling. Moreover, glucose, insulin, peptide C, glucacon, glycated hemoglobin, adiponectin and free fatty acids were measured.

The next data set relates to C57BL/6 mice. The method, then:
Methods: C57BL/6 mice received vehicle or dapagliflozin (1, 5 or 10 mg/kg) by gavage once a day for 2 weeks. Body weight and food intake were evaluated at treatment times 0, 7 and 14 days. At the end of the treatment, glucose tolerance was evaluated by ipGTT as well as epididymal adipose tissue weight and neurotransmitters by immunofluorescence.

In the next data set the test system is patients with DM1. The procedure: Methods: Observational and retrospective study in which they were analysed the medical recordo f patients with DM1 who made use of this medication in dose of 10 mg/day through 3-6 months.
In data set [5] the test system is patients after Roux-en-Y gastric bypass. The data set can be described thus: Postprandial hyperinsulinemic hypoglycemia after RYGB, case series. The format is in vivo, human. Conditions: Case 1. The procedure:
Cases report: Case (1) A person developed postprandial hypoglycemic episodes 6 years after Roux-en-Y gastric bypass (RYGB). A mixed meal tolerance test (MMTT, 500 kcal, 20% protein, 20% fat and 60% carbohydrates) was performed, leading to symptomatic postprandial hyperinsulinemic hypoglycemia (PHH) with a nadir of 45 mg/dL at 120 min (insulin of 8 mU/L; C-peptide of 3.21 ng/mL). […] Cases 2 and 3). Two […] women presented hypoglycemia following meals 3 and 5 years after RYGB. MMTT (120 min): glycemia of 34 mg/dL, insulin of 17 mU/L and C-peptide of 6.23 ng/mL and, in the second one, glycemia of 52 mg/dL, insulin of 9 mU/L and C-peptide of 2.7 ng/mL. PT and MRCP were normal in both cases. […] Case 4). A person who underwent RYGB 1.5 years ago reported hypoglycemic episodes in the last 6 months. MMTT: glycemia of 26 mg/dL at 150 min, insulin of 34 mU/L and C-peptide of 6.03 ng/mL. […] They were submitted to distal pancreatectomy and symptoms disappeared after diazoxid and hydrochlorothiazide. Case 5). A person developed hypoglycemia 10 years after RYGB. […] MMTT: glycemia of 43 mg/dL at 120 min, insulin of 100 mU/L and C-peptide of 1.95 ng/mL. […] Antiinsulin antibodies were negative in all cases (Table 1).

The next data set deals with participants with T2DM. The data set can be described thus: Vitamin D supplementation, randomized placebo-controlled trial, oxidative stress biomarkers. The class given is in vivo, human. The procedure: Methods: The participants (n = 31; age 46 ± 6.45 years; sex 21/10 female/male) with T2DM were enrolled in this study in two groups. One group received one capsule/week of vitamin D (50.000 U) or placebo for 90 days. At the beginning and after intervention, laboratory analyses (biochemical and OS markers) were performed. After fasting for 12 h, the subjects underwent the following laboratory blood analysis: glucose, lipid profile, uric acid, and C-reactive protein (CRP) which were evaluated by a biochemical autoanalyzer (Dimension Dade AR; Dade Behring), insulin and vitamin D were evaluated by MEIA (AxSYM, Abbott Laboratory, Abbott Park, IL, USA). Advanced oxidation protein products (AOPP) were determined in the plasma using the semiautomated method described by Witko-Sarsat. Analysis of plasma hydroperoxide concentrations was evaluated by two methods (tertbutyl hydroperoxide-initiated chemiluminescence and FOX assay). This study was conducted according to the principles of the Helsinki, and the study protocol was approved by the ethics committee of the University (CAAE: 41718014.9.0000.5231). Kruskal- Wallis with post hoc Dunn’test was performed to verify differences across intervention (placebo or vitamin D). Graph Pad Instat 3 version was used for evaluations.

For another data set, the system named is child with CGL type 2. The data set can be described thus: Case report: high doses of insulin in congenital generalized lipodystrophy. The format is in vivo, human. Conditions: continuous IV infusion of RI raised to 26.6 IU/kg/day. The procedure:
Case: Child with clinical diagnosis of CGL type 2 and diagnosis of diabetes for 1 year. Using Glargina and Lispro insulin basal/bolus (5.1 IU/kg/day) presented mean daily capillary glycemia above 600 mg/dl, associated with irritability, low weight and voracious appetite. Interned for intravenous insulin therapy and nutritional adjustment with standardized diet of 1600 kcal/day fractionated in 7 meals. Initiated continuous infusion of regular insulin (RI), 6.1UI/kg/day. […] Subsequently, it was modified to intramuscular administration, in 5 application times, without differences in glycemic averages. On the 36 th day, Degludeca insulin was introduced (9.3 IU/kg/day) associated with RI (18.2 U/kg/day), evolving within the first 24 h with improved glycemia (180 ± 42 mg/dl). […] After approximately fivefold increase in the initial insulin dose, there was improvement in glycemia, irritability, weight gain and decreased appetite.

For `CO/N=C(\C(=O)N[C@@H]1C(=O)N2C(C(=O)O)=C(CSc3nc(=O)c(=O)[nH]n3C)CS[C@H]12)c1csc(N)n1` [Ceftriaxone], the “%R (resistance), Gram-positive” value with Gram-positive was 70%.
For `N#CC(Cc1ccc(O)cc1)c1ccc(O)cc1` (stereo not drawn) [DPN], in data set [1], the Slc2a4/GLUT4 expression result is on record as “decreased”.
Regarding `CCOc1ccc(Cc2cc([C@@H]3O[C@H](CO)[C@@H](O)[C@H](O)[C@H]3O)ccc2Cl)cc1` [Dapaglifozin, dapagliflozin], the “weight (W)” value in [2] (9 months of DAPA 10 mg/day and MTF 1 g/day, 78.6 kg before) is 69.9 kg. In data set [2] (9 months, 33.14 before), this compound showed a BMI of 29.47 kg/m^2. Moreover, in [2] (9 months, 108 cm before), the “abdominal circumference (AC)” value is given as 98 cm. In addition, in data set [2] (9 months, 163 before), the “postprandial glycemia (PPG)” value is 152 mg/dL. The “fasting glycemia (FG)” value in data set [2] (9 months, 166 before) came out at 118 mg/dL. The compound also yielded a Hb1Ac in data set [2] (9 months, […] before) of 7.0%. Besides, in data set [2] (during 3 years of follow-up), the HbA1c entry is listed as “around 6.8%” and the “weight (W)” value was 69 kg. In data set [3], the “arterial pH at readmission” value is given as 7.23, the bicarbonate at readmission amounted to 5 mEq/L and the glucose at readmission was determined as 165 mg/dL. This compound also gave an adiponectin levels in [4] (3.2 ± 1.4 at baseline, p = 0.02) of 5.7 ± 3.3 µg/mL. In data set [4] (5.7 ± 3.6 at baseline, p = 0.05), the insulinemia was found to be 3.9 ± 3.5 mU/mL. In [4] (21.7 ± 2.0 at baseline, p = 0.05), this compound came in with a BMI of 21.5 ± 2.0 kg/m^2. Further, the fat percentage in data set [4] (28.4 ± 6.3 at baseline, p = 0.46) stood at 27.6 ± 4.0%. The compound further returned a glycemia in data set [4] (75 ± 7 at baseline, p = 0.02) of 71 ± 7 mg/dL. Besides, in the data set on C57BL/6 mice (1, 5 or 10 mg/kg, 2 weeks, p < 0.05), the “body weight gain (mean)” value is reported as 0.56 ± 1.1 g. Further, the food intake result in the data set with C57BL/6 mice (2 weeks) is “did not alter food intake significantly”. The “fasting glycemia (mean)” value in the data set with C57BL/6 mice (2 weeks, p < 0.05) is reported as 165.6 ± 28.8 mg/dL. For the same compound, in the data set on C57BL/6 mice (2 weeks, p = 0.13), the “epididymal adipose mass (mean)” value stood at 0.15 ± 0.02 g. In the data set with C57BL/6 mice (ipGTT, p < 0.05), the “area under glucose curve during the glucose tolerance test (mean)” value is reported as 28,078 ± 5623.5 arbitrary units. Besides, in the data set on C57BL/6 mice (min = 30, max = 1221, p < 0.05), the “glycosuria (mean)” value worked out at 307.2 mg/dL. The “average BMI after treatment” value in the data set on patients with DM1 (26.1 before, p = 0.002) was found to be 25.4 kg/m^2. Besides, the “systolic blood pressure, median after therapy” value in the data set on patients with DM1 (120 mmHg before, p = 0.02) amounted to 115 mmHg. Besides, in the data set with patients with DM1 (in vivo), the patients with ketoacidosis turned out to be 8.3% and the “patients with pain or pruritus on genital region” value came to 33.3%. Besides, the “patients with urinary tract infection (UTI)” value in the data set with patients with DM1 (n = 12) came to 8.3%. The “average weight after therapy” value in the data set on patients with DM1 (n = 12, 68.3 kg before, p = 0.002) was found to be 65.3 kg.
Consider `C[C@]12CC[C@@H]3c4ccc(O)cc4CC[C@H]3[C@@H]1CC[C@@H]2O` [E2, estradiol], for which the Slc2a4/GLUT4 expression entry in data set [1] is on record as “increased”.
Regarding `CC[C@H]1OC(=O)[C@H](C)[C@@H](O[C@H]2C[C@@](C)(OC)[C@@H](O)[C@H](C)O2)[C@H](C)[C@@H](O[C@@H]2O[C@H](C)C[C@H](N(C)C)[C@H]2O)[C@](C)(O)C[C@@H](C)C(=O)[C@H](C)[C@@H](O)[C@]1(C)O` [Erythromycin], in the data set with Gram-positive, the “%R (resistance), Gram-positive” value stood at 70%.
On the same count and under the same terms, with `Cc1onc(-c2ccccc2)c1C(=O)N[C@@H]1C(=O)N2[C@@H]1SC(C)(C)[C@@H]2C(=O)O` [Oxacillin] the figure was 70%.
On to `CCCc1c(-c2ccc(O)cc2)nn(-c2ccc(O)cc2)c1-c1ccc(O)cc1` [PPT], for which the Slc2a4/GLUT4 expression result in data set [1] was “increase”.
Take `CC1=Nc2ccc(Cl)cc2S(=O)(=O)N1` [diazoxid]: the “clinical response of postprandial hypoglycemia” value in data set [5] was “hypoglycemia was avoided”.
In the case of `C=C1CC[C@H](O)C/C1=C/C=C1\CCC[C@]2(C)[C@@H]([C@H](C)/C=C/[C@H](C)C(C)C)CC[C@@H]12` [vitamin D], the “hydroperoxides levels vs placebo group” value with participants with T2DM (50.000 U/week, 90 days, p = 0.008) was “significant reduction”. Besides, the “FOX levels vs placebo group” value in the data set on participants with T2DM (50.000 U/week, 90 days, p = 0.08) is listed as “trend to decrease”. In the data set on participants with T2DM (one capsule/week 50.000 U for 90 days, plasma, p = 0.05), the “AOPP vs placebo group” value was “significant reduction”.
In the case of RI: regular insulin, in the data set with child with CGL type 2, the mean capillary glycemia stood at 283 ± 99 mg/dL.
